Experimental data taken from patent US20240016863A1, “LACTOBACILLUS JOHNSONII AND METHOD FOR INCREASING THE LEVEL OF UNSATURATION IN FATTY ACID USING LACTOBACILLUS JOHNSONII OR METABOLITES THEREOF” (TCI CO., LTD., priority 2022, published 2024).

Test system: HepG2 cells
Assay: Cholesterol metabolism test (cholesterol uptake, NBD cholesterol, flow cytometer)
Type: cell-based, Human
Conditions: U-18666A 1.25 μM, sample 0.25% (v/v)
Description: 1. Cell line: Human liver cells, purchased from ATCC (American Type Culture Collection), cell number: HB-8065, hereinafter referred to as HepG2 cells.
5. Cholesterol Uptake Cell-based Assay Kit: purchased from Cayman; product number: 600440. This cholesterol uptake cell-based assay kit included U-18666A and NBD cholesterol.
1. The HepG2 cells were inoculated into a 6-well culture plate containing 2 mL of cell medium in each well according to a density of 1×10^5 cells per well, and cultured at 37° C. for 24 h. The HepG2 cells were divided into three test groups, i.e., a Mock group, a control group and an experiment group, respectively. Each group underwent trial in triplicate.
2. […]
4. After rinsing, the cells of each group were processed according to the test process provided by the cholesterol uptake cell-based assay kit to obtain a test sample of each group; the parameters of the flow cytometer were set as excitation spectra and emission spectra of FITC, and then a green fluorescence signal of each group was detected by using the flow cytometer.
The relative cholesterol uptake in hepatocytes of all groups was calculated according to the following formula: relative cholesterol uptake in hepatocytes (%)=(green fluorescence signal of each group/green fluorescence signal of the Mock group)×100%.

CCN(CC)CCO[C@H]1CC[C@@]2(C)C(=CC[C@@H]3[C@@H]2CC[C@]2(C)C(=O)CC[C@@H]32)C1 [U-18666A]
relative cholesterol uptake in hepatocytes (HepG2, 20 μg/mL NBD cholesterol, 24-72 h, Mock group = 100%): 143.5% | relative cholesterol uptake in hepatocytes increased compared with the Mock group (HepG2): about 43.5%
